Measured values as given in PMC2908543, “Uropathogenic Escherichia coli Modulates Immune Responses and Its Curli Fimbriae Interact with the Antimicrobial Peptide LL-37” (PLoS Pathogens, 2010).
“Also recorded” adds a separate entry of the source. Where two headings read alike, the source gives them in different places.

Tests used:
[1] = system: E. coli strain No. 12 and isogenic mutants; assay type: cell-based, Escherichia coli; settings: for IC50: initially grown in biofilm (LB plates without salt), 10^5 CFU/ml, 0.6 µM to 20 µM peptide in 2-fold dilutions, LB broth without salt, 20 h, Alamar blue 570 nm, two experiments in triplicates, read-out: IC50 (concentration at which bacterial growth was inhibited to 50%)
Procedure: For further investigation, E. coli isolate No. 12 from a child with pyelonephritis was chosen. This was a typical isolate expressing both curli and cellulose as well as type 1 fimbriae and yielding an approximately median level of biofilm as measured on microtiter plates. One-step knockout of bcsA and csgBA was carried out according to the protocol of Datsenko and Wanner with modifications, [50]. The following mutants were constructed using oligos listed in Table 1; WE1 bcsA::Cm, deficient in cellulose production; WE11 csgBA::Cm, deficient in curli production; and WE16 csgBA bscA::Cm, deficient in both cellulose and curli production. Expression of curli and cellulose in strain No. 12 was confirmed by these knockouts. Production of type 1 fimbriae under the culture conditions used for experiments was confirmed by yeast agglutination (see below).
The susceptibility of wild-type and mutant E. coli strains to synthetic LL-37 and mCRAMP (Innovagen AB, Lund, Sweden) was determined using a broth microdilution method. Briefly, bacteria were grown overnight at 37°C on LB plates with or without salt, inhibiting or promoting the formation of biofilm, respectively. Then, bacteria were suspended in PBS and diluted in LB broth without salt in a concentration of 10^5 CFU/ml. The bacterial concentration was verified by viable count after serial dilutions in PBS. Bacteria (90 µl suspension) were grown in 96-well plates in the presence of 10 µl aqueous solution of synthetic LL-37 or mCRAMP in final concentrations ranging from 0.6 µM to 20 µM in 2-fold dilutions. After 20 h, bacterial viability was measured colorimetrically by reduction of Alamar blue (BioSource International, Camarillo, CA, USA) for 1 h at 37°C [57]. The IC50 was determined as the peptide concentration that gave 50% reduction of the absorbance at 570 nm relative to bacteria grown without peptide.

monomeric CsgA [2] = molecular target: T1, monomeric CsgA (Escherichia coli, UniProt P28307); test: Surface plasmon resonance, monomeric CsgA; settings: monomeric CsgA immobilized (2000 response units), 0.1 µM peptide, 20 µl/min for 3 min, HBS-EP, Biacore 3000; binding constants not determinable
T1 construct: made in house; host or cells: E. coli LSR12 (C600::csg), co-expressed with CsgG
Procedure: Binding analysis of LL-37 to both monomeric and polymeric CsgA was performed with surface plasmon resonance (Biacore 3000 instrument; Biacore AB, Uppsala, Sweden). Both monomeric and polymeric CsgA was immobilized on a CM5 sensor chip (Biacore AB) surface by amine coupling. The chip surface was normalized in 70% glycerol and lanes on the chip were activated with injection of 35 µL 0.05 M N-hydroxysuccinimide (NHS)/0.2 M N-ethyl-N′-[3-dimethylamino) propyl]carbodiimide (EDC). Polymeric or monomeric CsgA (1 µM in 10 mM sodium acetate, pH 4.5) was then immobilized on the chip to 7000 response units and 2000 response units, respectively. After immobilization, the lanes were subjected to 60 µL ethanolamine (1 M, pH 8.5) to deactivate remaining activated carboxylic groups. One lane, activated and deactivated, was used as negative control (without addition of CsgA). Standard Biacore HBS-EP (Biacore AB) was utilized as running buffer, and 0.1 µM LL-37, sLL-37 or VIP were injected at 20 µl/min for 3 min. The surface was regenerated after each cycle with 100 mM HCl.

monomeric CsgA [3] = molecular target: T1, monomeric CsgA; test: CsgA monomer stability, SDS-PAGE; assay type: biochemical; settings: 10 µM CsgA, 20 h at 37°C, Coomassie Blue, seen already at molar ratio 16∶1 (CsgA∶LL-37)
Procedure: To confirm the inhibition of CsgA polymerization we sought to analyse the stability of the CsgA monomer in the absence and presence of LL-37. Freshly purified, monomeric CsgA (10 µM) was incubated for 20 h at 37°C without or with different concentrations of LL-37 and was subsequently separated by SDS-PAGE. After staining with Coomassie Blue, bands corresponding to LL-37 and/or CsgA in monomeric, dimeric or tetrameric form were visualized. When CsgA was incubated alone, monomers were not visible although sometimes dimers and/or tetramers could be observed. This finding indicates spontaneous formation of CsgA oligomers and/or larger polymers that can not migrate into the gel due to their size. […] This was already seen at a molar ratio of 16∶1 (CsgA∶LL-37). To exclude degradation of CsgA as a possible explanation for the lack of the gel band, polymerized CsgA was treated with 90% formic acid, dissolving polymeric CsgA into monomers. After this treatment, a band corresponding to monomeric CsgA was detectable in the gel (Figure 8A).
Samples were prepared in LDS (lithium dodecyl sulphate) sample buffer (4∶1) and incubated at 70°C for 10 min. Electrophoresis was performed using 4–12% Bis-tris NU-PAGE gels (Invitrogen) at 200 V for 35 min. Gels were stained with Coomassie Blue for 1 h and destained over night in 90% water, 8% methanol and 2% acetic acid (vol/vol/vol).

Pseudomonas aeruginosa = settings: ref [46]; cited from earlier work
Text: Biofilm inhibition by antimicrobial polypeptides has previously been described for Pseudomonas aeruginosa. […] A direct interaction with biofilm components was not investigated in these studies. The effect was rather related to an influence of LL-37 on the bacterial gene expression profile or an influence of lactoferrin on free iron. These and our findings stress an important anti-biofilm role of antimicrobial polypeptides in host defense. It is likely that the anti-biofilm activit ...

T1 sequence (P28307 21-151): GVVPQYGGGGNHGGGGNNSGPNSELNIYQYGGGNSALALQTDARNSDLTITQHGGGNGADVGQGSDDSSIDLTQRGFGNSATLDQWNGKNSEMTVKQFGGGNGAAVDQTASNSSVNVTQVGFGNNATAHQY

Which results are given for `CC[C@H](C)[C@H](NC(=O)[C@H](CCCCN)NC(=O)[C@H](CCC(=O)O)NC(=O)[C@H](CCCCN)NC(=O)[C@H](CO)NC(=O)[C@H](CCCCN)NC(=O)[C@H](CCCNC(=N)N)NC(=O)[C@H](Cc1ccccc1)NC(=O)[C@H](Cc1ccccc1)NC(=O)[C@H](CC(=O)O)NC(=O)CNC(=O)[C@H](CC(C)C)NC(=O)[C@@H](N)CC(C)C)C(=O)NCC(=O)N[C@@H](CCCCN)C(=O)N[C@@H](CCC(=O)O)C(=O)N[C@@H](Cc1ccccc1)C(=O)N[C@@H](CCCCN)C(=O)N[C@@H](CCCNC(=N)N)C(=O)N[C@H](C(=O)N[C@H](C(=O)N[C@@H](CCC(N)=O)C(=O)N[C@@H](CCCNC(=N)N)C(=O)N[C@H](C(=O)N[C@@H](CCCCN)C(=O)N[C@@H](CC(=O)O)C(=O)N[C@@H](Cc1ccccc1)C(=O)N[C@@H](CC(C)C)C(=O)N[C@@H](CCCNC(=N)N)C(=O)N[C@@H](CC(N)=O)C(=O)N[C@@H](CC(C)C)C(=O)N[C@H](C(=O)N1CCC[C@H]1C(=O)N[C@@H](CCCNC(=N)N)C(=O)N[C@H](C(=O)N[C@@H](CCC(=O)O)C(=O)N[C@@H](CO)C(=O)O)[C@@H](C)O)C(C)C)[C@@H](C)CC)C(C)C)[C@@H](C)CC` [LL-37]?
difference in resistance between the strains ([1]; bacteria pre-grown planktonically, curli expression suppressed (data not shown)): no significant difference in the resistance; IC50 ([1]; curliated strains): 12 µM; IC50 ([1]; non-curliated strains): 6 to 7 µM; binding / association and dissociation by SPR (monomeric CsgA [2]): higher association with CsgA than the control peptides; also recorded: stronger association and lower dissociation rates; CsgA monomer band at 15 kDa in presence of LL-37 (monomeric CsgA [3]): a band migrating at 15 kDa, the predicted size of monomeric CsgA, could be observed; also recorded: the CsgA monomer is visible after SDS-PAGE; bacterial surface motility mediated by type IV pili (Pseudomonas aeruginosa): increased bacterial surface motility
